# Source: US10875861B1, “Therapeutic compounds” (Rutgers, The State University of New Jersey, priority 2017, dated 2020)
# Structures can show the parent of a compound that is named as a salt.
# Legend:
# BMI-1 and αENaC mRNA = experiment: mRNA expression of BMI-1 and αENaC on concomitant treatment with cyclohexamide; format: cell-based; conditions: RU-A15 100 nM, RU-A16 200 nM, concomitant with CHX
# Procedure: Next, to test if Examples 3 and 4 are selective for BMI-1 RNA, cells were concomitantly treated with RU-A15/16 (100 nM, 200 nM, respectively) and cyclohexamide (CHX), a general translational inhibitor, and analyzed mRNA expression of BMI-1 and the CHX-specific target epithelial sodium channel (αENaC).
# BMI-1 5'UTR = experiment: Luciferase plasmid containing the BMI-1 5'UTR with or without binding pocket; format: cell-based
# Procedure: Since translation initiation is dependent on RNA folding, the 3D folding of the BMI-1 5′UTR was examined. To identify sequences that fold into a target minimum and maximum free energy (MFE) secondary structure, inverse RNA folding of the BMI-1 5′UTR was performed using the mFold server. A highly probable, probability annotated group of secondary structures were identified, starting with the MFE, centroid energy structures and including fourteen other probabilities. […] In a luciferase plasmid containing the BMI-1 5′UTR, the sequences of the pocket region that contains the potential binding site was removed by cutting with compatible restriction enzymes and re-ligating the plasmid. The luciferase activity was examined with the luc plasmids or without the binding pocket upon treatment with the inhibitors. […] Thus, RU-A15/A16 engages with the BMI-1 UTR regulatory mechanisms.
# [1] = system: BMI-1 and ubiquitinated histone H2A in primary glioblastoma cells; experiment: Modulation / dynamics of BMI-1 and downstream targets in GBM cells (Western blotting); format: cell-based, human
# Procedure: Different GBM cells were treated with DMSO or different concentrations of the B compounds for 72 hours. Cells were lysed in Cell Lysis Buffer (Cell Signaling, #9803) supplemented with Protease Inhibitor Cocktail (Sigma, #P8340), spun down for 30 minutes at 4° C., after which the supernatant was collected at every time point indicated. Western blotting analysis was performed on all samples as described above. BMI-1 loss started at 6-12 h, coinciding with an upper shift and hyper-phosphorylation of BMI-1 at 12-24 h and complete depletion at 72 h.
# To study the compound dynamic activity against GBM spheres, GBMs were tested with exemplary compounds. Different GBM cells were treated with DMSO or different concentrations of the inhibitors for 72 hours. Cells were lysed in Cell Lysis Buffer (Cell Signaling, #9803) supplemented with Protease Inhibitor Cocktail (Sigma, #P8340), spun down for 30 minutes at 4° C., after which the supernatant was collected at every time point indicated. Western blotting analysis was performed on all samples as described above. […] BMI-1 loss started at 6-12 h, coinciding with an upper shift and hyper-phosphorylation of BMI-1 at 12-24 h and complete depletion at 72 h. […] This is expected since BMI-1 is known to suppress p21. BMI-1 inhibition could be reversed using phosphatase treatment, moreover, when proteasomal inhibitor is added to treated cells after 24 h, BMI-1 is locked in the phosphorylated state, therefore showing that the phosphorylation event precedes BMI-1 degradation. The phosphorylation was independent of p38 kinase activation, as when we added […], the p38 inhibitor to the cultured cells upon treatment with the BMI-1 inhibitor, the combined treatment could not reverse the effects of RU-A15 on BMI-1 inhibition.
# [2] = system: glioblastoma cancer cell line; experiment: MTT viability assay with glioblastoma cancer cell line (Test A); format: cell-based, human; conditions: for EC50: Homo sapiens, 72 hours
# Text: To generate primary patient-derived GBM models for testing small molecule inhibitors, fresh primary tissues were received from patients undergoing surgical resection of WHO grade IV gliomas at Robert Wood Johnson University Hospital (RWJUH) under an approved IRB protocol. De-identified primary human GBM samples were delivered to the laboratory. Cells were obtained through mechanical dissociation of the tumor tissue using a blade and plated in DMEM/F12 medium (Gibco) in the presence of B-27 Supplement (Gibco, #17504-044), 20 ng/ml of human recombinant EGF (Gibco, #PHG0311L) and human recombinant FGF (Peprotech, #AF-100-18B). The following day, the culture was collected, incubated with Accutase (Gibco, #A11105-01) at 37° C. and passed through a 26G×⅜ needle (BD Precision Glide, #305110) to obtain a single cell suspension and re-plated in the same supplemented medium. Cells were cultured at low (5-6) passages in serum-free sphere 3D culture with mitogens that preserve the clonogenic stemness phenotype. […] different primary GBM cells (GBM #46, GBM #50, and GBM #76) were tested for cell viability after treatment with the inhibitors. Cell viability was measured using MTT assay. Briefly, one thousand cells per well were seeded in 96-well plates and exposed to drug in a total of 200 uL media. After 72 hours, 50 uL of stock concentration of 2.5 mg/mL 3-(4,5-dimethylthiazol-2-yl)-2,5-diphenyltetrazolium bromide (MTT) (Sigma, #M2128) dissolved in PBS was added to wells and incubated at 37° C. for 4 hours; read in a […] plate reader at 570 nm and compared to DMSO and untreated cells. The IC50 (defined as the concentration at which 50% of the cells were viable) was determined from the curve.
# Accordingly, compounds of the invention may be useful as therapeutic agents for the treatment of cancer.
# To generate primary patient-derived GBM models for testing small molecule inhibitors, fresh primary tissues were received from patients undergoing surgical resection of WHO grade IV gliomas at Robert Wood Johnson University Hospital (RWJUH) under an approved RB protocol. De-identified primary human GBM samples were delivered to the laboratory. Cells were obtained through mechanical dissociation of the tumor tissue using a blade and plated in DMEM/F12 medium (Gibco) in the presence of B-27 Supplement (Gibco, #17504-044), 20 ng/ml of human recombinant EGF (Gibco, #PHG0311L) and human recombinant FGF (Peprotech, #AF-100-18B). […] Cell viability was measured using MTT assay. […] After 72 hours, 50 uL of stock concentration of 2.5 mg/mL 3-(4,5-dimethylthiazol-2-yl)-2,5-diphenyltetrazolium bromide (MTT) (Sigma, #M2128) dissolved in PBS was added to wells and incubated at 37° C. for 4 hours; read in a […] plate reader at 570 nm and compared to DMSO and untreated cells. […]
# U87 glioblastoma cells = experiment: Comparison of Example 3 and PTC-209 in U87 glioblastoma cells (cell viability); format: cell-based; conditions: 72 hours
# Text: BMI-1 inhibitors were developed by the Molecular Design and Synthesis laboratory, Rutgers Translational Sciences at Rutgers University, NJ, USA. […] (Generic name is PTC-209) was characterized among a screen for post-transcriptional inhibitors of BMI-1. Zebrafish embryo toxicology assays were used to select RU-A compounds with no embryonic toxicity in vivo (a surrogate assay for toxic effects on normal stem cells). […] Cells were counted using Beckman Coulter Vi-CELL Cell Viability Analyzer, and cell viability was confirmed by CellTiter-Glo Luminescent Cell Viability Assay (Promega, Madison, Wis., USA) according to standard protocols and analyzed with a Victor 2 plate reader (Wallac, Turku, Finland).
# [3] = primary glioblastoma cells, Western blotting
smiles,measurement,setting,value
"C[C@@H]1C[C@@H]([C@H](O)CC2CC(=O)NC(=O)C2)C(=O)[C@@H](C)C1 [CHX, cyclohexamide, reference compound]",BMI-1 mRNA expression,BMI-1 and αENaC mRNA,lowered mRNA levels
same,αENaC mRNA expression,BMI-1 and αENaC mRNA,lowered mRNA levels
"Cc1nc2ccccn2c1-c1csc(Nc2ccc3c(c2)OCO3)n1 [Example 4, N-(benzo[d][1,3]dioxol-5-yl)-4-(2-methylimidazo[1,2-a]pyridin-3-yl)thiazol-2-amine hydrobromide]",BMI-1 mRNA expression,BMI-1 and αENaC mRNA,did not inhibit
same,αENaC mRNA expression,BMI-1 and αENaC mRNA,did not inhibit
same,"normalized luc, BMI-1 5'UTR with intact binding pocket",BMI-1 5'UTR; intact minor groove potential binding pocket,significantly reduced normalized luc
same,"normalized luc, binding pocket sequences removed",BMI-1 5'UTR; pocket sequences removed,not when the pocket sequences were removed
same,CDK inhibitor p21,[1]; GBM#46 and #50,induced upregulation of the CDK inhibitor p21
same,BMI-1 protein levels,[1]; [3],inhibit BMI-1
same,WT p53 levels,[1]; [3],increase WT p53 levels
same,ubiquitin H2A,[1]; [3],inhibit ubiquitin H2A
"Cc1c(-c2csc(Nc3ccc(N(C)C)cc3)n2)nc2ncccn12 [Example B2, N^1,N^1-dimethyl-N^4-(4-(3-methylimidazo[1,2-a]pyrimidin-2-yl)thiazol-2-yl)benzene-1,4-diamine]",EC50,[2],1 µM
same,modulation of ubiquitinated histone H2A (Test B),"[1]; GBM cells, B compounds, 72 hours",modulation of downstream target ubiquitinated histone H2A
"COc1ccc(Nc2nc(-c3nc4ccccn4c3C)cs2)cc1 [Example B3, N-(4-methoxyphenyl)-4-(3-methylimidazo[1,2-a]pyridin-2-yl)thiazol-2-amine]",EC50,[2],20 µM
"Cc1c(-c2csc(Nc3ccc(N(C)C)cc3)n2)nc2ccccn12 [Example B4, N^1,N^1-dimethyl-N^4-(4-(3-methylimidazo[1,2-a]pyridin-2-yl)thiazol-2-yl)benzene-1,4-diamine]",EC80,[2]; cell marked (EC80) in the EC50 column,20 (EC80) μM
"COc1cc(Br)c(Nc2nc(-c3c(C)nc4ncccn34)cs2)c(Br)c1 [PTC-209, reference compound]",IC50,U87 glioblastoma cells,10 µM
